Publication PMC3685175 (Journal of medicinal chemistry, 2013)

Legend:
Assay type in all cases: biochemical
[1] = molecular target: T1, P450 1A1 (Homo sapiens, UniProt P04798)
T1 sequence (P04798 1-512): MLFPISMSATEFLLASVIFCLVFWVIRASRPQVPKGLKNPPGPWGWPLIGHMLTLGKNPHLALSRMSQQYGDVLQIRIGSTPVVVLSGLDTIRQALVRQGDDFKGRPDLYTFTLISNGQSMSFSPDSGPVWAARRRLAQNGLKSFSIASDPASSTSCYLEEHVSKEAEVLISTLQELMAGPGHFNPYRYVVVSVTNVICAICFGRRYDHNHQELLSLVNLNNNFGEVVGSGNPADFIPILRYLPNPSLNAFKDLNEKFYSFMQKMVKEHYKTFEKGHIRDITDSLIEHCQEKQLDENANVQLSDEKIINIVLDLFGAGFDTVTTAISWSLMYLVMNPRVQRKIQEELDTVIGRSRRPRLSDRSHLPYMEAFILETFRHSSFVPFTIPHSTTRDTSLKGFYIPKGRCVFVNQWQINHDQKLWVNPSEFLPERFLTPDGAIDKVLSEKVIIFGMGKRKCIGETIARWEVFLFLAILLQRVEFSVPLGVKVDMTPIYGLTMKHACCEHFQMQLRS

[2] = molecular target: T2, P450 1A2 (Homo sapiens, UniProt P05177)
T2 sequence (P05177 1-516): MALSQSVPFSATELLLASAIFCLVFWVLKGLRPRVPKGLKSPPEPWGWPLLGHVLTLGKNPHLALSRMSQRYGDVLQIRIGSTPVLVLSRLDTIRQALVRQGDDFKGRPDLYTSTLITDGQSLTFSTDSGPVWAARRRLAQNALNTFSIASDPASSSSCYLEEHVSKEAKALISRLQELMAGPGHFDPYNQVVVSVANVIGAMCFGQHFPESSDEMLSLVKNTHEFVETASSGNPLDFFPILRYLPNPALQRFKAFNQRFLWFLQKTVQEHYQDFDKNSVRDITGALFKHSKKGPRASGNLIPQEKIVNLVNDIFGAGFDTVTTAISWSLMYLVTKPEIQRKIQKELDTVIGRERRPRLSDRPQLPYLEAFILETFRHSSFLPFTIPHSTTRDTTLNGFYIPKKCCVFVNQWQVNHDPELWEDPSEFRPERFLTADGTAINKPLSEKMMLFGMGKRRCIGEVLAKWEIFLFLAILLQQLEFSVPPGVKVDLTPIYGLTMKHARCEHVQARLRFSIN

[3] = molecular target: T3, P450 1B1 (Homo sapiens, UniProt Q16678); details: from IC50 values
T3 sequence (Q16678 1-543): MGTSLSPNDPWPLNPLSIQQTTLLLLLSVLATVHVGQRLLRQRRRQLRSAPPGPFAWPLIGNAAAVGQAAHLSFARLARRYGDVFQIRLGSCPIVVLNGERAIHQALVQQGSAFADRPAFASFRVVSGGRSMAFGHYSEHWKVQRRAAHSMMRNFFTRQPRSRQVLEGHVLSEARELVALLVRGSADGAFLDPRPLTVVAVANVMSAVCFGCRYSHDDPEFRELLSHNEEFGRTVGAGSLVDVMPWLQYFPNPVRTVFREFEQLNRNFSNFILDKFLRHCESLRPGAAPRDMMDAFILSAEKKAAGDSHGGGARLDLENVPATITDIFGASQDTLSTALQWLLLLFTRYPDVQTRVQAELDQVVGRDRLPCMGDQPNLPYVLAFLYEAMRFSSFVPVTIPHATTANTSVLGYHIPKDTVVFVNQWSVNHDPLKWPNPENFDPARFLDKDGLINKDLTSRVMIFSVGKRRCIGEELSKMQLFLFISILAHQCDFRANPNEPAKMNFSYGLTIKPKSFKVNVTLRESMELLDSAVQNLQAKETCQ

[4] = Kitz-Wilson plot, mechanism-based inactivation

Row | KI, P450 1A1 [1, 4] [nM] | mechanism of inhibition of P450 1A1 ([1]; in words) | KI, P450 1A2 [2, 4] [nM] | mechanism of inhibition of P450 1A2 ([2]; in words) | selectivity for P450 1B1 over P450 1A1 [3] [times] | selectivity for P450 1B1 over P450 1A2 [3] | effect on P450 1A1 ([1]; 0.1 μM inhibitor, in words) | effect on P450 1A2 ([2]; 0.1 μM inhibitor, in words) | inhibition of P450 1A2 ([2]; in words (conclusion)) | SMILES
1 | 130 | mechanism-based inhibitor | 71 | mechanism-based inhibitor |  |  |  |  |  | C#CCOc1cccc(-c2cc(=O)c3c(O)cccc3o2)c1 [5H3′FPE, 5-Hydroxy-2-(3-(propargyloxy)phenyl)-4H-chromen-4-one]
2 |  |  |  |  | 120 | more than 250 times | without having any significant effect | without having any significant effect | no inhibition | C#CCOc1ccc(-c2cc(=O)c3c(O)cccc3o2)cc1 [5H4′FPE, 5-Hydroxy-2-(4-(propargyloxy)phenyl)-4H-chromen-4-one]
